Counter-ions that a name gives are not always drawn. Active and inactive are the calls of the source. The rule behind the calls is not given here.
experiment: Cytotoxicity activity against human HepG2 cells assessed by CellTiter-Glo luminescent cell viability assay.; type: toxicity, cell-based; set-up: assay stage confirmatory assay, source tissue liver; conditions: HepG2 cells, read-out: IC50 relative

Compound | CC50
CC1(C)CC[C@]2(C(=O)O)CC[C@]3(C)C(=CC[C@@H]4[C@@]5(C)CCC(=O)C(C)(C)[C@@H]5CC[C@]43C)[C@@H]2C1 [OLEANONIC ACID] | 8.4 µM (inactive)
CCOc1ncccc1C(=O)Nc1cc(F)ccc1F | 1.3 µM (active)
Cc1ccc(Cl)cc1N1CCN(c2cc([C@H]3C[C@@H](O)C3)ncn2)CC1 | 9.5 µM (active)
CCOc1nc2cccc(C(=O)OC(C)OC(=O)OC3CCCCC3)c2n1Cc1ccc(-c2ccccc2-c2nnn[nH]2)cc1 (stereo unspecified) [CANDESARTAN CILEXETIL] | 10.7 µM (active)
CCCC[C@H](CC)CNC1CCN(C(C)C)CC1 | 7.8 µM (inactive)
O=C(Nc1ccnc2ccnn12)c1ccc2ccccc2n1 | 1.4 µM (active)
CN1CCC(NC(=O)c2ccc3c(c2)n(Cc2ccccc2)c(=O)c2ccnn23)CC1 | 9.8 µM (active)
CCN(c1ccc(C(=O)Nc2ccccc2O)cc1)C(C)C | 11.9 µM (active)
Cc1cc(F)c(C(=O)Nc2cccc(-c3nncn3C(C)C)n2)cc1-n1cnc(C2CC2)c1 [SELONSERTIB] | 12.3 µM (active)
CN(C)CC[C@H](CSc1ccccc1)Nc1ccc(S(=O)(=O)NC(=O)c2ccc(N3CCN(Cc4ccccc4-c4ccc(Cl)cc4)CC3)cc2)cc1[N+](=O)[O-] [ABT 737] | 13.2 µM (active)
O=[N+]([O-])c1ccc(CN2CCOCCOCCN(Cc3ccc([N+](=O)[O-])cc3)CCOCC2)cc1 | 10.4 µM (active)
Cc1nonc1Cn1nc(Cl)c(Cl)cc1=O | 21.6 µM (inactive)
CNCc1ccc(-c2cc(-c3nc(-c4ccc(S(=O)(=O)C(C)C)cc4)cnc3N)on2)cc1 [BERZOSERTIB] | 2.7 µM (active)
CCOc1cc(C(C)(C)C)ccc1C1=N[C@@](C)(c2ccc(Cl)cc2)[C@@](C)(c2ccc(Cl)cc2)N1C(=O)N1CCN(CCCS(C)(=O)=O)CC1 [RO-5045337] | 6.3 µM (active)
O=S(=O)(Nc1ccc(Cl)c2cccnc12)c1c[nH]c2ncccc12 | 5.5 µM (inactive)
O=C(NCCN1CCOCC1)C1CCN(c2nn3cc(-c4ccc(F)cc4)nc3s2)CC1 | 10.5 µM (active)
Cc1cc(C)n(-c2ccc(C(=O)Nc3ncccc3O)cc2)n1 | 8.8 µM (active)
COc1cc(O)cc(O)c1C(=O)/C=C/c1ccccc1 [CARDAMOMIN] | 18.3 µM (inactive)
Cc1cc(N2CCNCC2)nc2c(C)cccc12 | 11.1 µM (active)
Cn1c(Nc2ccc(C(F)(F)F)cc2)nc2cc(Oc3ccnc(-c4ncc(C(F)(F)F)[nH]4)c3)ccc21 [RAF-265] | 1.5 µM (active)
CC(C)c1cnc(NC(=O)N2CC[C@H](Nc3ccc4nccn4n3)C2)s1 | 3.2 µM (active)

Compound | CC50
COc1ccc(Cl)cc1CNCC1CCN(C[C@H](C)O)CC1 | 10.2 µM (active)
Cc1occc1C(=O)NC1CCN(CCC(=O)c2ccccc2)CC1 | 9.5 µM (active)
Cc1ccc(C(=O)Nc2ccc(Oc3cc4cnn(C)c4cc3-c3cn[nH]c3)c(F)c2)c(=O)n1-c1ccc(F)cc1 [MERESTINIB] | 2.9 µM (active)
CCNC(=O)C#Cc1ccc2c(c1)NC(=O)/C2=C(\Nc1ccc(CN(C)C)cc1)c1ccccc1 | < 0.1 µM (active)
COc1ccc(-c2cc3nccn3c(Nc3ncccc3C(N)=O)n2)cc1OC | 1.1 µM (active)
Nc1ccc2cc3ccc(N)cc3nc2c1 | 3.2 µM (active)
CCOc1ncccc1C(=O)NCc1nccc2ccccc12 | 3.9 µM (active)
COc1ccc2cc(C(=O)Nc3ccc4oc(=O)[nH]c4c3)[nH]c2c1 | 32.5 µM (inactive)
COc1cc(/N=c2\ssnc2Cl)cc(OC)c1OC | 8.1 µM (active)
CN(C)CCOc1ccc2ccccc2c1Br | 12 µM (active)
CCn1c(=O)c(-c2ccc(Cl)cc2Cl)cc2cnc(Nc3ccc(N4CCNCC4)c(F)c3)nc21 | 1.5 µM (active)
CN1CCC(CNc2ccc3ncc(-c4cccc(OC(F)(F)F)c4)n3n2)CC1 [SGI-1776] | 1.5 µM (active)
COc1ccc(OCCCN2CCN(S(=O)(=O)c3ccc(S(N)(=O)=O)cc3)CC2)cc1 | 15.9 µM (inactive)
O=C(Cc1ccsc1)Nc1nc(-c2ccccn2)cs1 | 3.2 µM (active)
N#Cc1cnc(Nc2cc(NC[C@H]3CNCCO3)c(C(F)(F)F)cn2)cn1 [SRA-737] | 7.2 µM (active)
Cc1cccc(CC(=O)N2CCc3c2ccc(-c2cn(C)c4ncnc(N)c24)c3F)n1 | 6.7 µM (active)
CC(C)c1cc(Br)ccc1OCCCN1CCN(C)CC1 | 4.1 µM (active)
C[C@H](O)CN1CCC(CNCc2cccc(Br)c2)CC1 | 9.4 µM (active)
CCc1cc2c(cc1CC)CC(NC[C@H](O)c1ccc(O)c3[nH]c(=O)ccc13)C2 [INDACATEROL] | 9.1 µM (active)
CNc1ncc2cc(-c3cc(NC(=O)NCCC(C)(C)C)c(F)cc3C)c(C)nc2n1 [LY-3009120] | 0.4 µM (active)
C=CC(=O)N1CCN(CCCn2c(=O)c(-c3c(Cl)c(OC)cc(OC)c3Cl)cc3cnc(NC)nc32)CC1 [PRN-1371] | 9.6 µM (active)

Compound | CC50
CC(=O)c1ccc(N2CCN(S(=O)(=O)c3ccc4onc(C(=O)N5CCCC5)c4c3)CC2)cc1 | 0.9 µM (active)
CCN(CC)C(=O)N1CC(Oc2ccc(-c3noc(-c4cccnc4)n3)cc2)C1 | 2.2 µM (active)
CSc1ccc(NC(=O)Nc2ccc3c(c2)N(S(C)(=O)=O)CC3)cc1 | 8.1 µM (inactive)
Cc1ccc([N+](=O)[O-])cc1S(=O)(=O)N(C)/N=C/c1cnc2ccc(Br)cn12 | < 0.1 µM (active)
C1=CC[C@@H](CNC2CCN(Cc3ccccc3)CC2)CC1 | 13 µM (active)
COCCCN[C@H]1CS(=O)(=O)C[C@@H]1S(=O)(=O)c1ccc(Cl)cc1 | 16.7 µM (active)
O=C(c1c(F)ccc(NS(=O)(=O)N2CC[C@@H](F)C2)c1F)c1c[nH]c2ncc(-c3cnc(C4CC4)nc3)cc12 [PLIXORAFENIB] | 5.4 µM (active)
COc1cc2nc(N3CCN(C(=O)c4ccco4)CC3)nc(N)c2cc1OC [PRAZOSIN HYDROCHLORIDE] | 6.6 µM (active)
Cc1noc(C)c1C(=O)Nc1nc(-c2ccc(S(=O)(=O)N(C)C)cc2)cs1 | 11.3 µM (active)
O=C(NCCN1CCCC1)C1CCN(c2ncccc2-c2nc(-c3ccccc3)no2)CC1 | 7.9 µM (active)
CN1CCN(S(=O)(=O)c2cccc(C(=O)Nc3nc(-c4ccccc4)cs3)c2)CC1 | 12.5 µM (active)
Cn1cc(-c2cnn3c(N)c(Br)c([C@@H]4CCCNC4)nc23)cn1 [SCH-900776] | 10.9 µM (active)
CCN1CCN(CC(O)COc2cc(C)c(Cl)c(C)c2)CC1 (stereo unspecified) | 12.8 µM (inactive)
CC1OC(OC2CC(O)C3(CO)C4C(O)CC5(C)C(C6=CC(=O)OC6)CCC5(O)C4CCC3(O)C2)C(O)C(O)C1O (stereo unspecified) | 0.1 µM (active)
Fc1ccc(C(c2ccc(F)cc2)N2CCN(C/C=C/c3ccccc3)CC2)cc1 [FLUNARIZINE HYDROCHLORIDE] | 14.6 µM (inactive)
Cc1c(-c2ccc(N3CCc4cccc(C(=O)Nc5nc6ccccc6s5)c4C3)nc2C(=O)O)cnn1CC12CC3CC(CC(C3)C1)C2 | 1 µM (active)
CC(=O)CCS(=O)(=O)c1ccc(Cc2ccc(S(=O)(=O)CCC(C)=O)cc2)cc1 | 9.2 µM (active)
COc1ccc(OC)c(C(=O)Nc2nc3ccccc3[nH]2)c1 | 4.7 µM (active)
CN1CCC(Nc2nc(Nc3ccc(Oc4ccccc4)cc3)c3c(=O)[nH]cc(Br)c3n2)CC1 [DENFIVONTINIB] | 0.4 µM (active)

Reference: ChEMBL document CHEMBL5303711, “ECBD screening data for assay EOS300108” (2023)
